The results in this text go back to the SangsterLogP compilation.

The logP is the decadic logarithm of the partition coefficient of the neutral form, usually between octanol and water. As to `CCOC(=O)CN1C(=O)CC1Sc1ccc2ccccc2c1` (stereo unspecified), the logP worked out at 3.4. The compound `O=C1CC(Oc2ccccc2)N1` (stereo unspecified) came in with a logP of 1.94. In turn, `O=C1CC(Sc2ccc(Cl)cc2)N1` (stereo unspecified) returned a logP of 2.31. With `O=C1C[C@@H](Sc2ccccc2)N1`, the logP worked out at 1.91. On to `O=C1CC(Oc2c3ccccc3cc3ccccc23)N1` (stereo unspecified), for which the logP was determined as 3.08. Take `O=C1CC(Oc2cccc(C(=O)OCc3ccccc3)c2)N1` (stereo unspecified): the logP worked out at 2.83. For `O=C1CC(Oc2ccc(C(=O)c3ccccc3)cc2)N1` (stereo unspecified), the logP was found to be 2.14. `O=C1CC(Sc2ccccc2C(=O)OCc2ccccc2)N1` (stereo unspecified) gave a logP of 2.62. On to `O=C1CC(Oc2ccc3ccccc3c2)N1` (stereo unspecified), for which the logP came to 2.29.

In the case of `CC(C)(C)OC(=O)CN1C(=O)CC1Oc1ccc2ccccc2c1` (stereo unspecified), the logP came out at 3.6.

In turn, `CCOC(=O)CN1C(=O)CC1Oc1ccc(C(=O)c2ccccc2)cc1` (stereo unspecified) had a logP of 3. `O=C1CC(Oc2ccc(-c3ccccc3)cc2)N1` (stereo unspecified) had a logP of 2.61.

`O=C1CC(Oc2cccc3ccccc23)N1` (stereo unspecified) displayed a logP of 2.66. Compound `CCOC(=O)CN1C(=O)CC1Oc1ccc2ccccc2c1` (stereo unspecified) yielded a logP of 2.8. In the case of `O=C1CC(Sc2ccc3ccccc3c2)N1` (stereo unspecified), the logP was found to be 2.64. Consider `CCOC(=O)CN1C(=O)CC1Oc1ccc(C(=O)C=Cc2ccccc2)cc1` (stereo unspecified), for which the logP is 3.3.

In turn, `O=C1CC(Sc2ccccn2)N1` (stereo unspecified) returned a logP of 1.81. The compound `O=C1CC(Oc2ccc(C(=O)CCc3ccccc3)cc2)N1` (stereo unspecified) showed a logP of 2.48.

`O=C1CC(Oc2ccccc2C(=O)c2ccccc2)N1` (stereo unspecified) returned a logP of 1.83.

Regarding `O=C1CC(Oc2ccc([N+](=O)[O-])cc2)N1` (stereo unspecified), the logP worked out at 1.85. For `O=C1CC(Oc2ccc(C(=O)/C=C/c3ccccc3)cc2)N1` (stereo unspecified), the logP came out at 2.56.
